Values of other authors as cited in patent US6472403B2, “αV integrin receptor antagonists” (Merck & Co., Inc., priority 2000, dated 2002).

Tested on: postmenopausal osteoporotic women
Conditions: median of 22 months of treatment

CC[C@H](C)[C@H](NC(=O)[C@H](CCC(=O)O)NC(=O)[C@H](CO)NC(=O)[C@@H](NC(=O)[C@@H](N)CO)C(C)C)C(=O)N[C@@H](CCC(N)=O)C(=O)N[C@@H](CC(C)C)C(=O)N[C@@H](CCSC)C(=O)N[C@@H](Cc1cnc[nH]1)C(=O)N[C@@H](CC(N)=O)C(=O)N[C@@H](CC(C)C)C(=O)NCC(=O)N[C@@H](CCCCN)C(=O)N[C@@H](Cc1cnc[nH]1)C(=O)N[C@@H](CC(C)C)C(=O)N[C@@H](CC(N)=O)C(=O)N[C@@H](CO)C(=O)N[C@@H](CCSC)C(=O)N[C@@H](CCC(=O)O)C(=O)N[C@@H](CCCN=C(N)N)C(=O)N[C@H](C(=O)N[C@@H](CCC(=O)O)C(=O)N[C@@H](Cc1c[nH]c2ccccc12)C(=O)N[C@@H](CC(C)C)C(=O)N[C@@H](CCCN=C(N)N)C(=O)N[C@@H](CCCCN)C(=O)N[C@@H](CCCCN)C(=O)N[C@@H](CC(C)C)C(=O)N[C@@H](CCC(N)=O)C(=O)N[C@@H](CC(=O)O)C(=O)N[C@H](C(=O)N[C@@H](Cc1cnc[nH]1)C(=O)N[C@@H](CC(N)=O)C(=O)N[C@@H](Cc1ccccc1)C(=O)O)C(C)C)C(C)C [hPTH(1-34)]
reduction in nonvertebral fractures: 54%
reduction in spine fractures: ≥ 65%
